Reference: US4056634A, “Dimercaptoethyl ether sulfonium compounds and use as antiinflammatory and antirheumatic agents” (Whitefin Holding S.A., priority 1975, dated 1977)

Assays:
[1] = in vivo; conditions: rat
[2] = system: Freund's adjuvant arthritis; assay: Freund's adjuvant arthritis test in rats (Perper's design); conditions: 0.04 LD50, N = 10; for Δ Volume (ml) (not injected paw; opposite site), x- ± s.e.: arthritic controls 1.68 ± 0.14; for ΔVolume (ml) (injected paw), x- ± s.e.: arthritic controls 3.21 ± 0.27
[3] = system: Granuloma pouch; assay: "Granuloma pouch" test (Selye), antiinflammatory activity in the rat; conditions: 0.06 LD50, N = 10; for Exudate volume (ml), x- ± s.e.: controls 13.2 ± 2.19
[4] = 80 mg/Kg/os daily, n.s. = not significant

CC(=O)Oc1ccccc1C(=O)O [Acetylsalicylic acid]
LD50 ([1]; ip): 500 mg/kg
LD50 ([1]; po): 1500 mg/kg

CCCCC1C(=O)N(c2ccccc2)N(c2ccccc2)C1=O [Phenylbutazone]
Δ Volume (not injected paw; opposite site), % inhib. ([2]; 50 mg/Kg/os daily): 0%
ΔVolume (injected paw), % inhib. ([2]; 50 mg/Kg/os daily): 8%
Δ Volume (ml) (not injected paw; opposite site), x- ± s.e. ([2]; 50 mg/Kg/os daily): 1.74 ± 0.13 mL
ΔVolume (ml) (injected paw), x- ± s.e. ([2]; 50 mg/Kg/os daily): 2.97 ± 0.14 mL
Pouch wall Fresh weight, % inhib. ([3]; 80 mg/Kg/os daily): 27%
Pouch wall Fresh weight (g), x- ± s.e. ([3]; 80 mg/Kg/os daily, controls 5.10 ± 0.53): 3.72 ± 0.28 g
Exudate volume (ml), x- ± s.e. ([3]; 80 mg/Kg/os daily): 9.70 ± 1.65 mL
Exudate volume, % inhib. [3, 4]: 28%
Pouch wall Fresh weight, % inhib. [3, 4]: 20%

C[S+](C)CCOCC[S+](C)C [Z.964, 2,2'-bis(dimethylsulfoniumethyl)ether diiodide]
Δ Volume (not injected paw; opposite site), % inhib. ([2]; 200 mg/Kg/os daily): 63%
ΔVolume (injected paw), % inhib. ([2]; 200 mg/Kg/os daily): 32%
Δ Volume (ml) (not injected paw; opposite site), x- ± s.e. ([2]; 200 mg/Kg/os daily): 0.61 ± 0.13 mL
ΔVolume (ml) (injected paw), x- ± s.e. ([2]; 200 mg/Kg/os daily): 2.17 ± 0.24 mL
LD50 ([1]; ip): 1150 mg/kg
LD50 ([1]; po): > 5000 mg/kg
Pouch wall Fresh weight, % inhib. ([3]; 300 mg/Kg/os daily): 48%
Exudate volume, % inhib. ([3]; 300 mg/Kg/os daily, * P<0.05): 53%
Pouch wall Fresh weight, % inhib. ([3]; 300 mg/Kg/os daily, * P<0.05): 38%
Pouch wall Fresh weight (g), x- ± s.e. ([3]; 300 mg/Kg/os daily, controls 5.10 ± 0.53): 2.70 ± 0.27 g
Exudate volume (ml), x- ± s.e. ([3]; 300 mg/Kg/os daily): 6.15 ± 0.69 mL
Pouch wall Fresh weight (g), x- ± s.e. ([3]; 300 mg/Kg/os daily, controls 1126.7, s.e. 156.7): 708.9 ± 79.0
